Experimental data from patent US8927023B2, “Biocompatible, non-biodegradable, non-toxic polymer useful for nanoparticle pharmaceutical compositions” (Fresenius Kabi Oncology Limited, priority 2005, dated 2015).

Assays:
[1] = Clarity of the solution of the nanoparticulate composition; format: physicochemical
Text: (§1) This could be exemplified with respect to pharmaceutical compositions of two poorly water-soluble anticancer drugs or compounds, viz.

[2] = Average particle size of the nanoparticles in the pharmaceutical composition; format: physicochemical; conditions: 1 ml ethanol solution into ≈35 ml
Text: as §1

[3] = Stability: hours the drug remains in solution without precipitation
Text: By reference to the term “stability”, it is to be construed to mean the period, counted in hours, wherein the poorly water-soluble drug or compound remains in solution in the pharmaceutical composition comprising the same, without any precipitation of the drug or compound from therein.

[4] = 1 ml ethanol solution into ≈35 ml, needle 0.305 mm, addition 3 Secs
[5] = 1 ml ethanol solution into ≈35 ml, needle 1.270 mm, addition 2 Secs
[6] = 1 ml ethanol solution into ≈35 ml, needle 1.270 mm, addition 6 Secs
[7] = 15 ml ethanol solution into ≈500 ml, needle 0.330 mm, addition 18 Secs
[8] = 15 ml ethanol solution into ≈500 ml, needle 0.711 mm, addition 10 Secs

## C=C(C)[C@@H]1CC[C@]2(C(=O)O)CC[C@]3(C)C(CCC4[C@@]5(C)Cc6c([nH]c7ccc(Cl)cc67)C(C)(C)C5CC[C@]43C)C12 (stereo partly drawn) [DRF-4012]
[1]; [4]
  Clarity Of The Solution: Clear
[1]; [5]
  Clarity Of The Solution: Opalescent
[1]; [6]
  Clarity Of The Solution: Milky
[2]; needle 0.305 mm, addition 6 Secs
  Average Particle Size (nm): 200 nm
[2]; needle 0.465 mm, addition 2 Secs
  Average Particle Size (nm): 90 nm
[2]; needle 0.467 mm, addition 6 Secs
  Average Particle Size (nm): 200 nm
[2]; needle 0.711 mm, addition 2 Secs
  Average Particle Size (nm): 100 nm
[2]; needle 0.711 mm, addition 6 Secs
  Average Particle Size (nm): 240 nm
[2]; needle 1.270 mm, addition 2 Secs
  Average Particle Size (nm): 130 nm
[2]; needle 1.270 mm, addition 6 Secs
  Average Particle Size (nm): 8100 nm
[2]; nanoparticles with the polymer, needle 0.305 mm, addition 3 Secs
  Average Particle Size (nm): 70 nm

## CC(=O)O[C@H]1C(=O)[C@@]2(C)[C@H]([C@H](OC(=O)c3ccccc3)[C@]3(O)C[C@H](OC(=O)[C@H](O)[C@@H](NC(=O)c4ccccc4)c4ccccc4)C(C)=C1C3(C)C)[C@]1(OC(C)=O)CO[C@@H]1C[C@@H]2O [Paclitaxel]
[1]; [4]
  Clarity Of The Solution: Clear
[1]; [5]
  Clarity Of The Solution: Opalescent
[1]; [6]
  Clarity Of The Solution: Milky
[1]; [7]
  Clarity Of The Solution: Clear
[1]; [8]
  Clarity Of The Solution: Clear
[3]; [4]
  Stability: >24 h
[3]; 1 ml ethanol solution into ≈35 ml, needle 0.305 mm, addition 6 Secs
  Stability: <4 h
[3]; 1 ml ethanol solution into ≈35 ml, needle 0.467 mm, addition 2 Secs
  Stability: 20 h
[3]; 1 ml ethanol solution into ≈35 ml, needle 0.467 mm, addition 6 Secs
  Stability: <2 h
[3]; 1 ml ethanol solution into ≈35 ml, needle 0.711 mm, addition 2 Secs
  Stability: <10 h
[3]; 1 ml ethanol solution into ≈35 ml, needle 0.711 mm, addition 6 Secs
  Stability: <2 h
[3]; [5]
  Stability: <4 h
[3]; [6]
  Stability: <0.5 h
[3]; [7]
  Stability: 20 h
[3]; [8]
  Stability: >24 h
[3]; 15 ml ethanol solution into ≈500 ml, needle 0.711 mm, addition 15 Secs
  Stability: <15 h
